Source: article PMC8518537, “N‐(Anilinoethyl)amide Melatonergic Ligands with Improved Water Solubility and Metabolic Stability” (Chemmedchem, 2021)
≈ marks a conversion by molar mass, not a printed value. Where two headings read alike, the source gives them in different places.

Legend:
[1] = target: T1, human MT2 receptors (Homo sapiens, UniProt P49286); assay: Radioligand binding, 2-[125I]iodomelatonin competition at MT2; conditions: cloned human MT2 in CHO cells; from IC50 by Cheng-Prusoff; mean±SD of three determinations; read-out: MT2 K i
T1 sequence (P49286 1-362): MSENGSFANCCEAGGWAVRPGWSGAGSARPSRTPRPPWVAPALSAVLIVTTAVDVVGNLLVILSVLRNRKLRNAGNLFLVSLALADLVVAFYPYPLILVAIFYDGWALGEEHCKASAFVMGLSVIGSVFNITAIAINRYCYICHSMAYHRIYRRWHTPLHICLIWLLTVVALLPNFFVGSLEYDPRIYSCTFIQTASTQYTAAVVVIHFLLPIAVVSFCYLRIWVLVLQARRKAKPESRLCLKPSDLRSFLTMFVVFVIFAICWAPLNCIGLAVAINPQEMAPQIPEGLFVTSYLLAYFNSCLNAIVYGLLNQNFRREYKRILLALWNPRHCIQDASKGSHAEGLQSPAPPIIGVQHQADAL
Description: (§1) The in vitro pharmacology experiments were conducted at Cerep (Celle‐Lévescault, France) following radioligand binding and cellular functional assays developed elsewhere.[60, 61, 62]
(§2) After incubation, the % of radioligand binding inhibition was determined via a scintillation counting method. The radioligand binding experiments were performed in triplicate. IC50 values were determined by nonlinear regression analysis of the competition curves using Hill equation curve fitting. The pK i values were calculated from the IC50 values in accordance with the Cheng‐Prusoff equation.[28]

[2] = Metabolic stability in rat liver microsomes; type: in vitro ADME; conditions: for CLi Rat LM (intrinsic clearance) / half-life at 5 μM: rat liver microsomes 1 mg protein/mL, 5 μM compound, mean±SD; for CLi Rat LM (intrinsic clearance): 37 °C; for half-life at 5 μM: NADPH-regenerating system, pH 7.4, 37 °C, read-out: t 1/2 Rat LM
Description: (§3) Each compound (final concentration: 5 μM) was incubated in the presence of rat or human liver microsomes (final concentration: 1 mg protein/mL) and of a NADPH‐regenerating system (final concentrations: 2 mM NADP^+, 10 mM glucose‐6‐phosphate, 0.4 U mL^−1 glucose‐6‐phosphate dehydrogenase, 5 mM MgCl2) in a 10 mM Phosphate Buffered Saline (PBS) solution, pH 7.4, at 37 °C. Compound was added after a 10 min pre‐incubation at 37 °C and. at stated time points, depending on compound kinetics, sample aliquots were withdrawn, metabolic reaction was quenched by acetonitrile addition (1 : 2), and after a centrifugation step (9000 g, 10 min, 4 °C) the supernatant was analyzed by HPLC‐UV‐VIS.
(§4) Apparent half‐lives (t1/2 in min) for the metabolic clearance of compounds were calculated from the pseudo first‐order rate constants (k) obtained by linear regression of the log chromatographic peak area versus time plots and are reported as means of three experiments±standard deviation. Intrinsic clearance (CLi) values of the compounds were calculated using the following equation: CLi (μL×min^−1×mg protein^−1)=k×V where V (μL×mg protein^−1)=incubation volume/mg protein added.
(§5) Pooled rat and human liver microsomes (20 mg/mL) were supplied by BD Biosciences (BD Biosciences, Woburn, MA, USA). Acetonitrile and methanol were HPLC grade and were supplied by Sigma‐Aldrich (Sigma‐Aldrich srl, Milan, Italy). Water was freshly bidistilled before use. All other reagents were purchased in the highest purity available.
(§6) PeakSimple 2.83 software was employed for data acquisition and HPLC peak integration. HPLC columns were a RP‐C18 Supelco Discovery (Supelco, Bellefonte, PA, USA), 5 μm, 150×4.6 mm i.d. for all compounds except 13, and a Phenomenex Gemini, 5 μm, 150×4.6 mm i.d. for compound 13 (Phenomenex). Elution conditions were optimized for each compound at a flow rate of 1 mL min^−1 employing mobile phases consisting of water and acetonitrile at different percentages, while UV detection was set at λ = 254 nm. For compound 13, the mobile phase consisted of a 10 mM ammonium acetate buffer pH 7.0 and methanol and the UV detection was set at λ = 281 nm.

[3] = Thermodynamic solubility, shake flask method; type: physicochemical; conditions: thermodynamic from solid, room temperature overnight, mean±SD, triplicate
Description: Thermodynamic solubility values were measured in two different buffers (pH 1.0; pH 7.4) by the shake flask method.[65] 1 mg of each compound was placed in 1 mL of appropriate buffer and shaken at room temperature overnight. The resulting suspension was centrifuged (10 min, 10000 g, 20 °C) and the supernatant analyzed by HPLC‐UV. Solubility values were interpolated from calibration curves prepared from concentrated DMSO stock solutions of each compound. Reported solubility values are the mean of three measurements±standard deviation.
It consisted of a LC‐10ADvp solvent delivery module, a 20 μL Rheodyne sample injector (Rheodyne LLC, Rohnert Park, CA, USA) and a SPD‐10Avp UV‐VIS detector. PeakSimple 2.83 software was employed for data acquisition and HPLC peak integration. […] Elution conditions were optimized for each compound at a flow rate of 1 mL min^−1 employing mobile phases consisting of water and acetonitrile at different percentages, while UV detection was set at λ = 254 nm.

[4] = target: human MT1 receptors (Homo sapiens, UniProt P48039); assay: Radioligand binding, 2-[125I]iodomelatonin competition at MT1; conditions: cloned human MT1 in CHO cells; from IC50 by Cheng-Prusoff; mean±SD of three determinations; read-out: MT1 K i
human MT1 receptors, sequence (P48039 whole entry): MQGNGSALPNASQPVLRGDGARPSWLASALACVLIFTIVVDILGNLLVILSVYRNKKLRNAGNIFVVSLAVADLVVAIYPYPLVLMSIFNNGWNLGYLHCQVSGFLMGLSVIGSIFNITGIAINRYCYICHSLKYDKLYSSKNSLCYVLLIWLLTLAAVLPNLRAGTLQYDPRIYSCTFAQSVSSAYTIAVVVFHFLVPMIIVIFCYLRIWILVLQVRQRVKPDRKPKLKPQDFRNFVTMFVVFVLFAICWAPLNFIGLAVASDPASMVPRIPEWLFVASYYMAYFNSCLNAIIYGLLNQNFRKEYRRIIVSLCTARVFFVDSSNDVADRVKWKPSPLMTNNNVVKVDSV
Description: as §1, §2

[5] = Experimental lipophilicity, shake-flask n-octanol/water; type: physicochemical; conditions: n-octanol/water (MOPS buffer); n-octanol/50 mM MOPS buffer pH 7.4, 25±1 °C; mean±SD of three; read-out: Log D oct,7.4
Description: Chosen buffer was 50 mM zwitterionic MOPS (3‐morpholinopropanesulfonic acid), pH 7.4 to avoid ionic couple partitioning, with ionic strength adjusted to 0.15 M by KCl addition. Compounds, after partitioning overnight, and dilution of both phases with methanol, were dosed in the HPLC‐UV system, as detailed below. Reported log D oct,7.4 values are the mean of three measurements±standard deviation.
HPLC columns were a RP‐C18 Supelco Discovery (Supelco, Bellefonte, PA, USA), 5 μm, 150×4.6 mm i.d. for all compounds except 13, and a Phenomenex Gemini, 5 μm, 150×4.6 mm i.d. for compound 13 (Phenomenex). Elution conditions were optimized for each compound at a flow rate of 1 mL min^−1 employing mobile phases consisting of water and acetonitrile at different percentages, while UV detection was set at λ = 254 nm. For compound 13, the mobile phase consisted of a 10 mM ammonium acetate buffer pH 7.0 and methanol and the UV detection was set at λ = 281 nm.

[6] = Metabolic stability in human liver microsomes; type: in vitro ADME; conditions: for CLi Human LM (intrinsic clearance) / half-life at 5 μM: human liver microsomes 1 mg protein/mL, 5 μM compound, mean±SD; for CLi Human LM (intrinsic clearance): 37 °C; for half-life at 5 μM: NADPH-regenerating system, pH 7.4, 37 °C, read-out: t 1/2 Human LM
Description: as §3, §4, §5, §6

[7] = buffer pH 1.0, simulated gastric fluid, pH 1.0 buffer, read-out: Solubility pH 1.0
[8] = buffer pH 7.4, aqueous buffer, pH 7.4 buffer, read-out: Solubility pH 7.4

Structure (SMILES) | Ki [1] [nM] | CLi Rat LM (intrinsic clearance) [2] [μL min^−1 mg prot^−1] | half-life at 5 μM [2] [min] | solubility [3, 7] [mg/mL] | solubility [3, 8] [mg/mL] | Ki [4] [nM] | logD [5] | CLi Human LM (intrinsic clearance) [6] [μL min^−1 mg prot^−1] | half-life at 5 μM [6] [min] | increase of rat microsomal stability compared to UCM765 ([2]; rat liver microsomes, versus UCM765) | increase of human microsomal stability compared to UCM765 ([6]; human liver microsomes, versus UCM765)
COc1ccc(-c2ccccc2)c(N(C)CCNC(C)=O)c1 [Compound 18, N ‐{2‐[(4‐Methoxy‐[1,1’‐biphenyl]‐2‐yl)(methylamino)]ethyl}acetamide] | 1.7 ± 0.13 | 468.9±12.9 | 1.5 ± 0.1 | > 1 | 0.34 ± 0.0097 (≈ 1140 µM) | 32 ± 0.8 | 3.11 ± 0.02 | 61.9±3.8 | 11.2 ± 0.7 | – | –
COc1cccc(N(CCNC(C)=O)CCc2ccccc2)c1 [Compound 12, N ‐{2‐[(3‐Methoxyphenyl)(phenethyl)amino]ethyl}acetamide] | 2.1 ± 0.15 | 247.3±34.2 | 2.9 ± 0.5 | > 1 | 0.11 ± 0.0069 (≈ 351 µM) | > 100 | 3.44 ± 0.02 | 96.7±6.3 | 7.2 ± 0.5 | – | –
COc1cccc(N(CCNC(C)=O)c2cccc(O)c2)c1 [Compound 15, N ‐{2‐[(3‐Hydroxyphenyl)(3‐methoxyphenyl)amino]ethyl} acetamide] | 1.4 ± 0.15 | 217.3±44.6 | 3.3 ± 0.6 | 0.0959 ± 0.0042 (≈ 319 µM) | 0.119 ± 0.0028 (≈ 395 µM) | 53 ± 1.6 | 2.42 ± 0.02 | 10.5±0.4 | 66.2 ± 2.8 | approximately 1.5 fold | approximately 1.5 fold
COc1cccc(N(CCNC(C)=O)c2ccncc2)c1 [Compound 13, N ‐{2‐[(3‐Methoxyphenyl)(pyridine‐4‐yl)amino]ethyl}acetamide] | > 100 | – | – | > 1 | 1.02 ± 0.0937 (≈ 3570 µM) | > 100 | 0.41 ± 0.01 | – | – | – | –
COc1cccc(N(CCNC(N)=O)c2ccccc2)c1 [Compound 6 a, 1‐{2‐[(3‐Methoxyphenyl)phenylamino]ethyl}urea] | 10 ± 0.13 | 44.2±1.0 | 15.7 ± 0.4 | 0.364 ± 0.0037 (≈ 1280 µM) | 0.3114 ± 0.0026 (≈ 1090 µM) | > 100 | 2.65 ± 0.02 | 9.1±1.5 | 77.5 ± 13.4 | – | –

Further compounds by falling Ki [1], results first:

Ki [1] [nM] | CLi Rat LM (intrinsic clearance) [2] [μL min^−1 mg prot^−1] | half-life at 5 μM [2] [min] | solubility [3, 7] [mg/mL] | solubility [3, 8] [mg/mL] | Ki [4] [nM] | logD [5] | CLi Human LM (intrinsic clearance) [6] [μL min^−1 mg prot^−1] | half-life at 5 μM [6] [min] | increase of rat microsomal stability compared to UCM765 ([2]; rat liver microsomes, versus UCM765) | increase of human microsomal stability compared to UCM765 ([6]; human liver microsomes, versus UCM765) | Structure (SMILES)
1.4 ± 0.08 | 38.1±6.0 | 18.2 ± 2.8 | 0.0069 ± 0.0001 (≈ 19.6 µM) | 0.0051 ± 0.0002 (≈ 14.5 µM) | > 100 | 3.84 ± 0.05 | 9.7±0.5 | 71.2 ± 3.4 | – | – | CC(=O)NCCN(c1ccc(F)cc1)c1cccc(Br)c1 [Compound 3, N‐{2‐[(3‐bromophenyl)‐(4‐fluorophenyl)amino]ethyl}acetamide, reference compound]
0.65 ± 0.03 | 98.1±6.8 | 7.1 ± 0.5 | 0.0149 ± 0.0006 (≈ 47.5 µM) | 0.0102 ± 0.0017 (≈ 32.5 µM) | 20 ± 0.45 | 3.3 ± 0.02 | 45.1±3.0 | 15.4 ± 1 | – | – | CCNC(=O)NCCN(c1ccccc1)c1cccc(OC)c1 [Compound 6 b, 1‐Ethyl‐3‐{2‐[(3‐methoxyphenyl)phenylamino]ethyl}urea]
0.29 ± 0.1 | 408±85 | 1.7 ± 0.4 | 0.125 ± 0.005 (≈ 440 µM) | 0.104 ± 0.005 (≈ 366 µM) | 1.6 ± 0.14 | 2.93 ± 0.01 | 17±1 | 40.8 ± 1.1 | – | – | COc1cccc(N(CCNC(C)=O)c2ccccc2)c1 [Compound 2, N‐{2‐[(3‐methoxyphenyl)phenylamino]ethyl}acetamide, reference compound]
